This note sets out measurements from patent publication US10596259B2, “Tumor radiosensitization with monomethyl auristatin E (MMAE) and derivatives thereof” (The Regents of the University of California, priority 2015, dated 2020).

Each structure is given as a SMILES string. Like-named read-outs stand apart in the source and are kept apart here.

What all share (test): Alamar Blue cell viability assay
Format in all cases: cell-based, Human
(The colour change of resazurin is a common sign of viable cells or microbes.)

Assay [1] relates to SCC-61 cells. The conditions noted are these: 72 hours. On the procedure:
(§1) Alamar Blue (resazurin) was added to the cells and allowed to incubate for 2 hrs at 37° C. Plates were analyzed using a plate reader with fluorescence measured at 560 nm.

Assay [2] has as its system SCC-35 cells. Particulars: 72 hours. On the procedure:
as §1

Assay [3] concerns SQ-9G cells. Particulars: 72 hours. The procedure: as §1
Assay [4] relates to CAL-27 cells. Particulars: 72 hours. The procedure: as §1
Assay [5] relates to HCT-116 cells. Particulars: Homo sapiens, HCT-116, 72 h, read-out: IC50. On the procedure: Alamar Blue (also known as resazurin) was added to the cells and allowed to incubate for 2 hrs at 37° C. Plates were analyzed using a plate reader with fluorescence measured at 560 nm. For irradiated cells, cells were treated with MMAE overnight followed by 6 Gy.
as §1
(§2) Cells were plated in 96-well plates and exposed to MMAE or paclitaxel for 72 hours and analyzed at 560 nm. For irradiated cells, cells were treated with MMAE overnight followed by 6 Gy.

Assay [6] relates to PANC-1 cells. Particulars: Homo sapiens, PANC-1, 72 h, read-out: IC50. On the procedure:
(§3) Cells were plated in 96 well plates at varying cell densities and exposed to range of concentrations of MMAE or paclitaxel for 72 hrs. Alamar Blue (also known as resazurin) was added to the cells and allowed to incubate for 2 hrs at 37° C. Plates were analyzed using a plate reader with fluorescence measured at 560 nm. For irradiated cells, cells were treated with MMAE overnight followed by 6 Gy.
as §2

The subject of assay [7] is 779E cells. The conditions noted are these: Homo sapiens, 72 h. The procedure:
as §3, §2

In the case of `N.N.[Cl][Pt][Cl]` [cisplatin], the IC50 in assay [1] was found to be 10 µM; in assay [2], 30 µM; in assay [3] it was 13 µM; in assay [4] it was 5 µM.
For `CC(=O)O[C@H]1C(=O)[C@@]2(C)[C@H]([C@H](OC(=O)c3ccccc3)[C@]3(O)C[C@H](OC(=O)[C@H](O)[C@@H](NC(=O)c4ccccc4)c4ccccc4)C(C)=C1C3(C)C)[C@]1(OC(C)=O)CO[C@@H]1C[C@@H]2O` [paclitaxel], the IC50 was determined as 0.01 µM in assay [5] (72 hours exposure (Example 3)); 0.01 µM in assay [5] (72 hours exposure); 0.0151 µM in assay [6] (72 hours exposure (Example 3)); 0.0151 µM in assay [6] (72 hours exposure); 0.052 µM in assay [7] (72 hours exposure); 0.052 µM in assay [7] (72 hours exposure (Example 3)).

The IC50 is the point on the concentration scale where inhibition reaches its midpoint.
